Experimental data as given in article PMC9848351, “Discovery of new pyridine-quinoline hybrids as competitive and non-competitive PIM-1 kinase inhibitors with apoptosis induction and caspase 3/7 activation capabilities” (Journal of Enzyme Inhibition and Medicinal Chemistry, 2023).

How the values were obtained:
[1] = tested on: Colon cancer cells (Caco-2); assay: MTT anticancer activity, Caco-2; type: cell-based, human; conditions: for IC50: Homo sapiens, Caco-2, 72 h, MTT, mean ± SEM; for Caco-2 LE: ligand efficiency from IC50 and number of heavy atoms; for Caco-2 LLE: ligand lipophilic efficiency, potency in terms of lipophilicity; for Caco-2 SI: selectivity index, Wi-38 versus Caco-2
Procedure, shortened: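 Cells seeded at 5x10^3/well (Caco-2 in DMEM, others in RPMI-1640, 10% FBS) and exposed to serial compound concentrations for 72 h at 37 °C, 5% CO2, starting 24 h after seeding. MTT (3 h, 37 °C) read at 570 nm after DMSO solubilisation; IC50 calculated from viability.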

PC-3 = assay: Flow cytometric annexin V/PI analysis of apoptosis, PC-3; type: cell-based, human; conditions: IC50 of compound, 72 h, mean ± SEM
Protocol: (§1) The apoptosis-dependent […] was determined by quantification of annexin-stained apoptotic cells using the FITC signal detector (FL1) against the phycoerythrin emission signal detector (FL2) (Supplementary Page S55). […]
(§2) MTT method was used for assaying cell viability 25. Twenty microliters of 5 mg/ml MTT (Sigma, USA) was added to each well and the plate was incubated at […]
(§3) 37 °C for 3 h. […]
(§4) Graphpad Instat software.
(§5) Determination of the anticancer activity
(§6) Anticancer effect of the above-mentioned compounds was evaluated using four human cancer cell lines. Colon cancer cells (Caco-2) were maintained in DMEM (Lonza, USA) containing 10% FBS while myeloid leukemia cell line (NFS-60), liver cancer cell line (HepG-2) and prostate cancer cell line (PC-3) were cultured in RPMI-1640 (Lonza, USA) supplemented with 10% FBS. All cancer cells (5x10^3 cells/well) were seeded in sterile 96-well plates. After 24h, serial concentrations of the tested compounds and Dox were incubated with four cancer cell lines for 72 h at 37 °C in 5% CO2 incubator. MTT method was done as described above. The Graphpad Instat software was used for calculating the half maximal inhibitory concentration (IC50) values. […]
(§7) Flow cytometric analysis of apoptosis
(§8) Caco-2, PC-3 and NFS-60 cell lines. After trypsinization, the untreated and treated cells were incubated with annexin V/PI for 15 min. Then cells were fixed and incubated with streptavidin-fluorescein (5 µg/mL) for 15 min. The apoptosis-dependent anticancer effect was determined by quantification of annexin-stained apoptotic cells using the FITC signal detector (FL1) against the phycoerythrin emission signal detector (FL2). […]

HepG-2 = assay: Flow cytometric annexin V/PI analysis of apoptosis, HepG-2; type: cell-based, human; conditions: IC50 of compound, 72 h, mean ± SEM
NFS-60 = assay: Flow cytometric annexin V/PI analysis of apoptosis, NFS-60; type: cell-based, human; conditions: IC50 of compound, 72 h, mean ± SEM
Protocol: as §1, §2, §3, §4, §5, §6, §7, §8

[2] = tested on: normal human lung fibroblast Wi-38 cell line; assay: MTT cytotoxicity on normal cells; type: cell-based; conditions: for EC50 / IC50: Homo sapiens; for EC50 / Wi-38 EC100: Wi-38, 72 h, MTT, mean ± SEM; for EC50: 50% cell viability; for IC50: Wi-38, MTT, read-out: IC50 on human lung fibroblasts (Wi-38); for Wi-38 EC100: safe dose, 100% cell viability
Procedure, shortened: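 Wi-38 fibroblasts in DMEM with 10% FBS were seeded at 5x10^3 cells/well, left 24 h to attach, then exposed to serial compound concentrations for 72 h at 37 °C, 5% CO2. MTT was added for 3 h, formazan dissolved in DMSO and absorbance read at 570 nm. IC50 and EC100 (safe dose) were estimated from the concentration series.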

Structure (SMILES) | IC50 [1] | Caco-2 LE [1] | Caco-2 LLE [1] | Caco-2 SI [1] | total percentage of the apoptotic cell population, PC-3 (PC-3) | total percentage of the apoptotic cell population, HepG-2 (HepG-2) | total percentage of the apoptotic cell population, NFS-60 (NFS-60) | EC50 [2] | IC50 [2] | Wi-38 EC100 [2]
N#Cc1c(-c2cc3cc(Cl)ccc3nc2N2CCOCC2)cc(-c2cccc(O)c2)[nH]c1=O [5b, 4-(6-Chloro-2-morpholin-4-yl-quinolin-3-yl)-6-(3-hydroxyphenyl)-2-oxo-1,2-dihydropyridine-3-carbonitrile] | 45.3 ± 1 nM | 0.30 | 3.28 | 3.775 | 50.7 ± 0.58% | 58.9 ± 0.88% | 54.2 ± 0.47% | 171 ± 2 nM | > 99 nM | 0.048 ± 0.0001 µM
N#Cc1c(-c2cc3ccccc3[nH]c2=O)cc(-c2cccc(O)c2)nc1S [14a, 6-(3-Hydroxyphenyl)-2-mercapto-4-(2-oxo-1,2-dihydroquinolin-3-yl)pyridine-3-carbonitrile] | 14.1 ± 4 nM | 0.40 | 5.18 | 21.206 | 56.545 ± 0.98% | 42.155 ± 0.16% | 42.005 ± 0.32% | 299 ± 4 nM |  | 0.134 ± 0.003 µM
COc1ccc2[nH]c(=O)c(-c3cc(-c4cccc(O)c4)[nH]c(=O)c3C#N)cc2c1 [13c, 6-(3-Hydroxyphenyl)-4-(6-methoxy-2-oxo-1,2-dihydroquinolin-3-yl)-2-oxo-1,2-dihydropyridine-3-carbonitrile] | 33.7 ± 6 nM | 0.35 | 5.11 | 1.033 | 57.91 ± 0.34% | 66.83 ± 1.32% | 58.83 ± 0.36% | 34.8 ± 3 nM |  | 0.0242 ± 0.001 µM
N#Cc1c(-c2cc3ccccc3[nH]c2=O)cc(-c2cccc(O)c2)[nH]c1=O [13a, 6-(3-Hydroxyphenyl)-2-oxo-4-(2-oxo-1,2-dihydroquinolin-3-yl)-1,2-dihydropyridine-3-carbonitrile] | 22.8 ± 1 nM | 0.39 | 5.31 | 1.118 | 59.71 ± 0.82% | 70.59 ± 1.07% | 59.23 ± 0.04% | 25.5 ± 4 nM |  | 0.0145 ± 0.0001 µM
COc1ccc2nc(N3CCOCC3)c(-c3cc(-c4cccc(O)c4)[nH]c(=O)c3C#N)cc2c1 [5c, 6-(3-Hydroxyphenyl)-4-(6-methoxy-2-morpholin-4-yl-quinolin-3-yl)-2-oxo-1,2-dihydropyridine-3-carbonitrile] | 36.1 ± 0.1 nM | 0.30 | 4.00 | 19.861 | 47.26 ± 0.92% | 54.14 ± 0.42% | 51.53 ± 0.09% | 717 ± 2 nM | > 99 nM | 0.361 ± 0.014 µM
